Results taken from paper PMC6430017, “Structural and chemical insights into the covalent-allosteric inhibition of the protein kinase Akt” (Chemical Science, 2019).

Key:
[1] = molecular target: T1, full-length Akt (Akt^wt) (Homo sapiens, UniProt P31749); experiment: HTRF KinEASE activity-based assay, IC50 determination; format: biochemical
Method: (§1) The biochemical inhibitory activity (IC50) was determined with the HTRF KinEASE assay from Cisbio as
(§2) previously described.1 All reagents for HTRF experiments were purchased from Cisbio Bioassays,
(§3) France. The measurements were analyzed using the Quattro Software Suite for IC50-determination.
(§4) Time-dependent IC50-measurements were performed as described. Briefly, IC50 values were
(§5) determined for twelve different incubation times and afterwards plotted versus accordingly. Data was
(§6) analyzed according to literature procedure.2

[2] = molecular target: T1, full-length Akt (Akt^wt); experiment: Kinetic characterization by time-dependent IC50 measurements; format: biochemical; settings: from time-dependent IC50
Method: as §1, §2, §3, §4, §5, §6

[3] = molecular target: T2, Akt1 (Homo sapiens, UniProt P31749); experiment: Intact protein mass spectrometry, covalent labeling; format: binding; settings: 10 µM protein, 100 µM inhibitor, 1 h, denaturing conditions
T2 construct: Purified full-length wtAkt1 was incubated with a 2-fold molar excess
T2 sequence (P31749 whole entry): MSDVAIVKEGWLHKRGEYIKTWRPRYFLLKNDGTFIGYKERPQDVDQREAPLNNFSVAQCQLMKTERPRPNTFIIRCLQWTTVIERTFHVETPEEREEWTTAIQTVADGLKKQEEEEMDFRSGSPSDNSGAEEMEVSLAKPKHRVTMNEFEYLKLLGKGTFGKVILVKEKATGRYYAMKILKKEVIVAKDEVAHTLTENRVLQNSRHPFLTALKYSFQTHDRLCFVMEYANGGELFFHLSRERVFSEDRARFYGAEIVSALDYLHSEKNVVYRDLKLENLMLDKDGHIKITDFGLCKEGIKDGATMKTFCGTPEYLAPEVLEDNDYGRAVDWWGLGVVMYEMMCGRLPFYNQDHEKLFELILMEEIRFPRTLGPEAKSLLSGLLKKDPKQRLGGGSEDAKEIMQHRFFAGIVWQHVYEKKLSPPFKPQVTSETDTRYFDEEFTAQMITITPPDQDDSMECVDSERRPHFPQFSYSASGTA
Method: In order to provide an orthogonal proof for covalent bond formation, we co-incubated the covalent-allosteric inhibitors with the protein Akt1 and analyzed the samples by mass spectrometry (Fig. 2).
Mass spectra were recorded using denaturing conditions.
We used Akt1 for MS experiments and incubated 10 µM of the protein with 100 µM of the inhibitor in
a buffer for 1 h. We analyzed the samples by mass spectrometry using a Thermo Fisher Scientific
Ultimate 3000 HPLC system connected with a Thermo Fisher Scientific Velos Pro (2D ion trap).
A mass range of 700-2000 m/z was scanned
and raw data were deconvoluted and analyzed with ProMass.

[4] = test system: T47D; experiment: Cell viability assay (CellTiter-Glo); format: cell-based; settings: Homo sapiens, 120 h; T47D (breast), day 5; read-out: Cell viability assay EC50
Method: Cell Culture and Viability Assay
(§7) analysis, cells were plated on day 0 into white 384-well cell culture plates (Greiner Bio-One) using a
(§8) Multidrop reagent dispenser (Thermo) at cell numbers that ensure linear and optimal luminescent
(§9) signal intensity (AN3-CA: 800 cells/well; BT-474: 400 cells/well; Dan-G: 400 cells/well; HPAF-II: 400
(§10) cells/well). Then the cells were incubated for 24 h in a humidified atmosphere at 37 °C/5 % CO2. The
(§11) cells were treated with inhibitors in serial dilutions ranging from 30 µM down to 0.1 nM using an Echo
(§12) 520 acoustic liquid handler (Labcyte Inc.). Cell viability was analysed on day 5 using the CellTiter-Glo
(§13) assay (Promega) as per manufacturer’s instructions. Luminescence signal was recorded by an EnVision
(§14) Multilabel 2104 Plate Reader (PerkinElmer) with 500 ms integration time. All data were normalized to
(§15) the plate positive control (30 µM staurosporine) and negative control (DMSO). Finally, the data was
(§16) processed with the Quattro Software Suite using a four parameter logistic model. As a quality control,
(§17) the Z’-factor was calculated from 16 positive and negative control values. Only assay results showing
(§18) a Z’-factor ≥ 0.5 were used for further analysis. All experimental points were measured in duplicates
(§19) for each plate and were replicated in at least three times.

[5] = test system: ZR-75-1; experiment: Cell viability assay (CellTiter-Glo); format: cell-based
Method: Cell Culture and Viability Assay
as §7, §8, §9, §10, §11, §12, §13, §14, §15, §16, §17, §18, §19

[6] = test system: MCF-7; experiment: Cell viability assay (CellTiter-Glo); format: cell-based; settings: Homo sapiens, MCF7, 120 h; MCF-7 (breast), day 5; read-out: Cell viability assay EC50
Method: Cell Culture and Viability Assay
as §7, §8, §9, §10, §11, §12, §13, §14, §15, §16, §17, §18, §19

[7] = test system: BT-474; experiment: Cell viability assay (CellTiter-Glo); format: cell-based; settings: Homo sapiens, 120 h; BT-474 (breast), day 5; read-out: Cell viability assay EC50
Method: Cell Culture and Viability Assay
as §7, §8, §9, §10, §11, §12, §13, §14, §15, §16, §17, §18, §19

[8] = test system: KU-19-19; experiment: Cell viability assay (CellTiter-Glo); format: cell-based; settings: Homo sapiens, 120 h; KU-19-19 (bladder), day 5; read-out: Cell viability assay EC50
Method: Cell Culture and Viability Assay
as §7, §8, §9, §10, §11, §12, §13, §14, §15, §16, §17, §18, §19

[9] = molecular target: AKT3 (PKB gamma) (Homo sapiens, UniProt Q9Y243); experiment: SelectScreen Z'LYTE kinase profiling; format: biochemical; settings: ATP at apparent KM
AKT3 (PKB gamma), sequence (Q9Y243 whole entry): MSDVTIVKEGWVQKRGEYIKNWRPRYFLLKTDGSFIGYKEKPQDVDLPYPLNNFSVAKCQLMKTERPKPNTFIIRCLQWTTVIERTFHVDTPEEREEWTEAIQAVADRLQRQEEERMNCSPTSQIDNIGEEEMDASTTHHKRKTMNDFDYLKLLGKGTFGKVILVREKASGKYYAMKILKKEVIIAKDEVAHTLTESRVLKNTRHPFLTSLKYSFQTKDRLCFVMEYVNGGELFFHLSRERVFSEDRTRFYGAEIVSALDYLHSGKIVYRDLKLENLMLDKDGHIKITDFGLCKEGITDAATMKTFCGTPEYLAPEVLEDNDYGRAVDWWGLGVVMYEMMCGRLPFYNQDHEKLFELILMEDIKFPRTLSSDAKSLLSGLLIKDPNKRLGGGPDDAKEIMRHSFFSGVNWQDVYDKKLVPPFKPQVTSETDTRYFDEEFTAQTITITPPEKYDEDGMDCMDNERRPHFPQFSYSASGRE
Method: protein kinases at a compound concentration of 1 µM. Measurements were performed in duplicates
and at the particular apparent ATP KM of each individual kinase employing the activity based Z’LYTE®
kinase assay of the SelectScreen® Kinase Profiling Services (ThermoFisher Scientific).
kinases at a compound concentration of 1 µM. Measurements were performed in duplicates and at
the particular apparent ATP KM of each individual kinase employing the activity based Z’LYTE® kinase
assay of the SelectScreen® Kinase Profiling Services (ThermoFisher Scientific).

[10] = human, 3 µM
Method: For this purpose, we used a microsomal stability assay that is a good predictor for phase I metabolic stability.[50]
Phase I metabolic stability assay
Metabolic stability under oxidative conditions was determined by LCMS-based measuring of
degradation of compounds at 3 µM in human and murine liver microsomes over 60 minutes at 37 °C
Calculating the compound half-life t1/2, the in vitro intrinsic clearance CLint is

T1 sequence (P31749 whole entry): as the sequence (P31749 whole entry) above

## C=CC(=O)Nc1ccc2c(c1)n(C1CCN(Cc3ccc(-c4nc5cc[nH]c(=O)c5cc4-c4ccccc4)cc3)CC1)c(=O)n2C [24b]
[1]
  fold loss in inhibitory activity (IC50) compared to 1: 3 fold
[1]; HTRF KinEASE
  IC50: 0.003 ± 0.0003 µM
[2]
  Ki: 0.0107 ± 0.0005 µM
  kinact: 0.00202 s⁻¹
  kinact/KI: 190000 ± 25000 M⁻¹ s⁻¹
[3]
  labeling of Akt1 by mass spectrometry: complete labeling
[4]
  EC50: 0.011 ± 0.002 µM
[5]; Homo sapiens, 120 h, ZR-75-1 (breast), day 5, read-out: Cell viability assay EC50
  EC50: 0.002 µM
[5]; ZR-75-1 EC50
  fold higher inhibitory activity than borussertib: 2 fold
[6]
  EC50: 0.032 ± 0.008 µM
[7]
  EC50: 0.109 ± 0.016 µM
[8]
  EC50: 7.16 ± 2.11 µM
[9]
  inhibition at 1 µM: 75%
[10]
  fold lower stability in microsomes: 4 fold
